Experiments:
bone marrow of mice = assay: Micronucleus test in bone marrow of mice; assay type: in vivo; conditions: Slc:ddY male mice, 24 hours after administration
Experimental: For the compound described as Example 1 of this invention, the micronucleus test in bone marrow of mice was performed by the following method.
Mice groups, each consisting of five, six-week-old, Slc:ddY male mice, were used. The compound of this invention described as Example 1 and 7-[3-(R)-(1-aminocyclopropyl)pyrrolidin-1-yl]-6-fluoro-1-[2-(S)-fluoro-1-(R)-cyclopropyl]-8-methyl-1,4-dihydro-4-oxoquinoline-3-carboxylic acid (Reference drug 1) described in PCT/JP96/00208 were dissolved in and diluted with 0.1 mol/l NaOH/saline solution. The 0.1 mol/l NaOH/saline solvent was used as a control, and as a positive Reference drug, a drug solution, prepared by dissolving and diluting cyclophosphamide (CP) in saline solution, was used. All drug solutions were disinfected by filtration through Mylex GS 0.22 μm filters. With each drug solution, a single intravenous dose of 10 ml/kg was administered at an administration rate of 0.2 ml/min. 24 hours after administration, […] were collected from the femur bone, the smear preparations were prepared, and these were dyed with […].

[1] = Urinary excretion after oral administration (excretion test groups); assay type: in vivo; conditions: fasting rats, 20 mg/kg, urine 0-24 h
Experimental: An administration solution was prepared by dissolving a tested compound to a concentration of 2 mg/ml (as free compound) in distilled water, and using a 2.5 ml disposable syringe or a metal oral probe, the solution was orally administered at a dose of 20 mg/kg to fasting rats (Crj: CD IGS; male; 7-week-old; Charles River Japan, Inc.). […]
Determination of drug concentrations in liquid samples were quantified by an agar well method bioassay using the B. subtilis ATCC6051 strain as the test organism. […] After addition of the sample, the plate medium was set still for 1 hour at 4° C. to perform preliminary dispersion and then culturing at 37° C. was performed for approximately 18 hours, and the inhibition ring diameters were measured using CA-400 (Dainippon Seiki). The concentrations of the test samples were measured using a calibration curve determined by second-order regression from the logarithmic values of the drug concentration of the calibration curve serial dilutions and the inhibition ring diameters.
The urinary excretion rate (%) was determined from the amount (μg) of drug administered, amount (ml) of urine (or washing solution), and concentration (μ/ml) in urine (or washing solution): [(Urinary excretion rate]=100×([Amount of urine]×[Concentration in urine])/[Amount of drug administered] Method 3: Calculation of Pharmacokinetic Parameters

Compound	micronucleus induction, judgment result (bone marrow of mice; single intravenous dose, 25, 50, and 100 mg/kg administration groups, versus control)	Urinary recovery ratio (per dose) 0-24 h [1]	micronucleus induction in comparison to the control (bone marrow of mice; single intravenous dose, 50 and 100 mg/kg administration groups)
Cc1c(N2CC[C@@H](C3(N)CC3)C2)ccc2c(=O)c(C(=O)O)cn([C@@H]3C[C@@H]3F)c12 [Example 1, 7-[3-(R)-(1-aminocyclopropyl)pyrrolidin-1-yl]-1-[2-(S)-fluoro-1-(R)-cyclopropyl]-1,4-dihydro-8-methyl-4-oxoquinoline-3-carboxylic acid]	negative	8.1%	–
Cc1c(N2CC[C@@H](C3(N)CC3)C2)c(F)cc2c(=O)c(C(=O)O)cn([C@@H]3C[C@@H]3F)c12 [Reference drug 1, 7-[3-(R)-(1-aminocyclopropyl)pyrrolidin-1-yl]-6-fluoro-1-[2-(S)-fluoro-1-(R)-cyclopropyl]-8-methyl-1,4-dihydro-4-oxoquinoline-3-carboxylic acid, reference compound]	–	1.8%	clearly seen

Source: patent US7902226B2, “Dehalogeno-compounds” (Daiichi Pharmaceutical Co., Ltd., priority 2000, dated 2011)
